Where only a bound is given, the exact number is not on record here.

What all share (type): cell-based
For test [1], the target named is T1, human TLR7 (Homo sapiens, UniProt Q9NYK1).
T1 construct: host or cells: HEK-Blue cells
T1 sequence (Q9NYK1 27-1049): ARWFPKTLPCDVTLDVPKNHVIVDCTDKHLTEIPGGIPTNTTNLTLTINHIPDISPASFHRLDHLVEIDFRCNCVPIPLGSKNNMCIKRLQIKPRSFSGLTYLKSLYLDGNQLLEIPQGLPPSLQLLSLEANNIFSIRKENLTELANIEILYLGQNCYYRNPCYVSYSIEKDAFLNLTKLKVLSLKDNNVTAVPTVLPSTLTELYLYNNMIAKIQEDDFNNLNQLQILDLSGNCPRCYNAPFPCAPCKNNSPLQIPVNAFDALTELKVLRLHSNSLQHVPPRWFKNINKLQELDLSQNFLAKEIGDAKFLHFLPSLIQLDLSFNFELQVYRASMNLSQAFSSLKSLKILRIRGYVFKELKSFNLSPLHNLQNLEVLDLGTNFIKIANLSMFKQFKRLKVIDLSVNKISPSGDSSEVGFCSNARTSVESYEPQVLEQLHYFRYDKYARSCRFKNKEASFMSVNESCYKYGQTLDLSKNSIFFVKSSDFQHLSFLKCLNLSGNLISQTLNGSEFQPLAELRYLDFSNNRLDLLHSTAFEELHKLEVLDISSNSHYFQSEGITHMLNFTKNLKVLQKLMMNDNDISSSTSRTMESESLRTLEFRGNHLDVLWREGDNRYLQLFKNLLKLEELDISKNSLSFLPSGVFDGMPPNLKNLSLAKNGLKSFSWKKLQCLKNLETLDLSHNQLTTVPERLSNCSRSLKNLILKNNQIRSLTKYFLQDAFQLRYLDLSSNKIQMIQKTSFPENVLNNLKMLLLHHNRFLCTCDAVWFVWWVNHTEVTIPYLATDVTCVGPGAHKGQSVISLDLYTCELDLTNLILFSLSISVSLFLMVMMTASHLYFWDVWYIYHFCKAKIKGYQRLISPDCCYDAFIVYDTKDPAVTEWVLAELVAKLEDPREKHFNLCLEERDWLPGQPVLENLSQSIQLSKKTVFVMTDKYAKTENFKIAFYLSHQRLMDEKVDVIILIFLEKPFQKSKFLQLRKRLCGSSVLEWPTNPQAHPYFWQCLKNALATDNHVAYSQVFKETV
Kind of test: TLR7 inhibition reporter assay (HEK-Blue cells, SEAP reporter, gardiquimod stimulation). The note with it: HEK-Blue cells overexpressing human TLR7, SEAP reporter, gardiquimod 7.5 μM. An outline of the steps:
(§1)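 HEK-Blue cells overexpressing human TLR7, TLR8 or TLR9, with an NF-κB/AP-1-driven SEAP reporter, pre-treated 30 min at room temperature with compound (0.05 nM-50 μM final). Stimulated with 7.5 μM gardiquimod (TLR7), 15.9 μM R848 (TLR8) or 5 nM ODN2006 (TLR9), then 22 h at 37° C. SEAP read with HEK-Blue Detection; % inhibition set against agonist+DMSO and known-inhibitor wells.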
On the technique in general: Reporter assays use an easily measured gene product as a stand-in for the process of interest.

In test [2] the target is T2, human TLR8 (Homo sapiens, UniProt Q9NR97).
T2 construct: host or cells: HEK-Blue cells
T2 sequence (Q9NR97 27-1041): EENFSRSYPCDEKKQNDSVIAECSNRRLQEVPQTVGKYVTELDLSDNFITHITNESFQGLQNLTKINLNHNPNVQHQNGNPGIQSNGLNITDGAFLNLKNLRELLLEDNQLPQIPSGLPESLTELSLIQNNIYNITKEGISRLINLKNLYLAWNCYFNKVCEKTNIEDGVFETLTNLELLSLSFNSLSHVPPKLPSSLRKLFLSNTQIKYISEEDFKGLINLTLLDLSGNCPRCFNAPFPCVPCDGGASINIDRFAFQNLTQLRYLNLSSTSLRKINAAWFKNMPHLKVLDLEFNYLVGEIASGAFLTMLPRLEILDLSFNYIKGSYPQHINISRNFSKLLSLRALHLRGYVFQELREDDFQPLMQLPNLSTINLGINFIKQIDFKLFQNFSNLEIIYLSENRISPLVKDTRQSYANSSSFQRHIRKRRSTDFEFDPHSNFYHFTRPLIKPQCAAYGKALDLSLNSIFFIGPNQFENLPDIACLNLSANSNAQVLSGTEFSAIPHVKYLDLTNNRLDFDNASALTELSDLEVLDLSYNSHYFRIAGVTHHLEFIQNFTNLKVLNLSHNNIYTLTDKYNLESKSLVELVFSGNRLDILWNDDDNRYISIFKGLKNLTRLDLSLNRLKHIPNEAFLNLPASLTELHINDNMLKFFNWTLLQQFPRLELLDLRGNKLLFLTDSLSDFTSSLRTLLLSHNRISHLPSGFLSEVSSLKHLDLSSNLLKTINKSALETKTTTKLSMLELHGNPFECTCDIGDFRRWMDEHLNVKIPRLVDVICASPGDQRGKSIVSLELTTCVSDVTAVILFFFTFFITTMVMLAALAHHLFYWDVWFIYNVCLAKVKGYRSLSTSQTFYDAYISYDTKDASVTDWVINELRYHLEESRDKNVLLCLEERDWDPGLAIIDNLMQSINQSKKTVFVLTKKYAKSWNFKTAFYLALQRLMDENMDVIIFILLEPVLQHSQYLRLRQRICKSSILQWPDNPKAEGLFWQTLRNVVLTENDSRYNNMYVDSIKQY
Kind of test: TLR8 inhibition reporter assay (HEK-Blue cells, SEAP reporter, R848 stimulation). Conditions: HEK-Blue cells overexpressing human TLR8, SEAP reporter, R848 15.9 μM. The method in brief:
as §1

Test [3] addresses T3, human TLR9 (Homo sapiens, UniProt Q9NR96).
T3 construct: host or cells: HEK-Blue cells
T3 sequence (Q9NR96 26-1032): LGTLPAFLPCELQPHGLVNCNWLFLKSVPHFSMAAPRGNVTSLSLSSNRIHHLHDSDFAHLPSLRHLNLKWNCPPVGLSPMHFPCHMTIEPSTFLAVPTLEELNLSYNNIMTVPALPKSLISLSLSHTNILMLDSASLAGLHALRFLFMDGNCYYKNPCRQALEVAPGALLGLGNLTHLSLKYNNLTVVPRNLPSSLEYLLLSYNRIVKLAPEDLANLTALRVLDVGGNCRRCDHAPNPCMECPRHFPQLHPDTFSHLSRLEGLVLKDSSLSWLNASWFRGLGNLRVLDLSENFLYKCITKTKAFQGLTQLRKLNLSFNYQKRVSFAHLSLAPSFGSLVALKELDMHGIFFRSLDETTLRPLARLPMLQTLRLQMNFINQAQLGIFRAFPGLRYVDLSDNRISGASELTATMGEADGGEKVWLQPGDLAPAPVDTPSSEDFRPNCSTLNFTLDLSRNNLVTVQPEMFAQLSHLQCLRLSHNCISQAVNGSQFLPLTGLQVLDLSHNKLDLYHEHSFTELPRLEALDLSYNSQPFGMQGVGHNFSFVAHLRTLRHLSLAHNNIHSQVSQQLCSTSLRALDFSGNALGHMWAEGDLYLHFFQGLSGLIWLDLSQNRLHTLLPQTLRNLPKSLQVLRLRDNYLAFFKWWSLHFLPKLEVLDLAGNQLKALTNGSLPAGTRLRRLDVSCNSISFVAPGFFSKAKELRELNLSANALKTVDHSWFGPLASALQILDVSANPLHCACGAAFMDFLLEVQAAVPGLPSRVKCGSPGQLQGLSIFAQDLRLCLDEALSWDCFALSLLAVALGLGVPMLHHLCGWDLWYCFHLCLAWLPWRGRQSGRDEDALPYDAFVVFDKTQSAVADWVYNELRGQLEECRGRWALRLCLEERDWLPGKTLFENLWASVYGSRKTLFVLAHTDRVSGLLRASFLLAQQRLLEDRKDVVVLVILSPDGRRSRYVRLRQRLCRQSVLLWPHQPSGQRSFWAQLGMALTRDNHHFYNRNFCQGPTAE
Kind of test: TLR9 inhibition reporter assay (HEK-Blue cells, SEAP reporter, ODN2006 stimulation). The note with it: HEK-Blue cells overexpressing human TLR9, SEAP reporter, ODN2006 5 nM. The method in brief:
as §1

In the case of `CCN1CCC(c2ccc(-c3n[nH]c(-c4cc(OC)c5ncnn5c4)c3C(C)C)cc2)CC1` [Example 315], the IC50 (in general, the midpoint of a concentration-inhibition curve) in test [1] was 5.22 nM; in test [2], 20.2 nM; in test [3], > 50 µM.

In the case of `Cc1cc(-c2[nH]nc(-c3ccc(C4CCN(CC(C)(C)C)CC4)cc3)c2C(C)C)cn2ncnc12` [Example 317], the concentration for half-maximal inhibition (IC50) worked out at 9.47 nM in test [1], 4.22 nM in test [2] and 44.4 µM in test [3].

`COCCN1CCC(c2ccc(-c3n[nH]c(-c4cc(OC)c5ncnn5c4)c3C(C)C)cc2)CC1` [Example 318, 6-(4-isopropyl-3-(4-(1-(2-methoxyethyl)piperidin-4-yl)phenyl)-1H-pyrazol-5-yl)-8-methoxy-[1,2,4]triazolo[1,5-a]pyridine]: the results for the IC50 in test [1], in test [2] and in test [3] were 6.23 nM, 0.83 nM and 21.6 µM, respectively.

As for `COc1cc(-c2[nH]nc(-c3ccc(C4CCN(CC(C)(C)O)CC4)cc3)c2C(C)C)cn2ncnc12` [Example 319], the IC50 in test [1] was 3.84 nM; in test [2], 0.53 nM; in test [3], 19.4 µM.

Take `COc1cc(-c2[nH]nc(-c3ccc(C4CCN(CC(F)(F)F)CC4)cc3)c2C(C)C)cn2ncnc12` [Example 320]: the results for the IC50 in test [1], in test [2] and in test [3] were 4.38 nM, 1.3 nM and 21.9 µM, respectively.

For the molecule `Cc1cc(-c2[nH]nc(-c3ccc(C4CCN(C(=O)CN(C)C)CC4)cc3)c2C(C)C)cn2ncnc12` [Example 323, 2-(dimethylamino)-1-(4-(4-(4-isopropyl-5-(8-methyl-[1,2,4]triazolo[1,5-a]pyridin-6-yl)-1H-pyrazol-3-yl)phenyl)piperidin-1-yl)ethan-1-one], the IC50 in test [1] was 22.4 nM; in test [2] it was 3.86 nM; in test [3], > 50 µM.

Take `Cc1cc(-c2[nH]nc(-c3ccc(C4CN(C)C4)cc3)c2C(C)C)cn2ncnc12` [Example 324, 6-(4-isopropyl-3-(4-(1-methylazetidin-3-yl)phenyl)-1H-pyrazol-5-yl)-8-methyl-[1,2,4]triazolo[1,5-a]pyridine]: the half-inhibitory concentration (IC50) in test [1] was determined as 6.96 nM; in test [2], 2.26 nM; in test [3], 6.24 µM.

Turning to `CCN1CC(c2ccc(-c3n[nH]c(-c4cc(C)c5ncnn5c4)c3C(C)C)cc2)C1` [Example 325], the figures for the IC50 in test [1], in test [2] and in test [3] were 19 nM, 0.19 nM and > 50 µM, respectively.

Regarding `CCCN1CC(c2ccc(-c3n[nH]c(-c4cc(C)c5ncnn5c4)c3C(C)C)cc2)C1` [Example 326], the half-inhibitory concentration (IC50) amounted to 5.42 nM in test [1], 7.97 nM in test [2] and 17.6 µM in test [3].

As to `Cc1cc(-c2[nH]nc(-c3ccc(C4CN(C(C)C)C4)cc3)c2C(C)C)cn2ncnc12` [Example 327], the IC50 in test [1] was determined as 7.5 nM; in test [2], 7.11 nM; in test [3] it was 15.8 µM.

`COc1cc(-c2[nH]nc(-c3ccc(C4CN(C)C4)cc3)c2C(C)C)cn2ncnc12` [Example 328]: the IC50 was found to be 12.9 nM in test [1], 12.8 nM in test [2] and 18.8 µM in test [3].

Consider `CCN1CC(c2ccc(-c3n[nH]c(-c4cc(OC)c5ncnn5c4)c3C(C)C)cc2)C1` [Example 329], for which the IC50 was determined as 414 nM in test [1], 60.3 nM in test [2] and 14.7 µM in test [3].

On to `CCCN1CC(c2ccc(-c3n[nH]c(-c4cc(OC)c5ncnn5c4)c3C(C)C)cc2)C1` [Example 330], for which the concentration for half-maximal inhibition (IC50) in test [1] stood at 8.34 nM; in test [2], 1.5 nM; in test [3], 11.4 µM.

With `COc1cc(-c2[nH]nc(-c3ccc(C4CN(C(C)C)C4)cc3)c2C(C)C)cn2ncnc12` [Example 331], the IC50 in test [1] was 4.29 nM; in test [2] it was 0.49 nM; in test [3], 6.31 µM.

Take `COc1cc(-c2[nH]nc(-c3ccc(C4CN(C5COC5)C4)cc3)c2C(C)C)cn2ncnc12` [Example 332]: the IC50 in test [1] is 16.9 nM; in test [2] it was 1.91 nM; in test [3] it was 10.2 µM.

`COc1cc(-c2[nH]nc(-c3ccc(C4CN(C5CCOCC5)C4)cc3)c2C(C)C)cn2ncnc12` [Example 333]: the half-inhibitory concentration (IC50) in test [1] was determined as 34.9 nM; in test [2], 2.19 nM; in test [3], 37.4 µM.

With `Cc1cc(-c2[nH]nc(-c3ccc(C4CN(C(=O)CN(C)C)C4)cc3)c2C(C)C)cn2ncnc12` [Example 334, 2-(dimethylamino)-1-(3-(4-(4-isopropyl-5-(8-methyl-[1,2,4]triazolo[1,5-a]pyridin-6-yl)-1H-pyrazol-3-yl)phenyl)azetidin-1-yl)ethan-1-one], the results for the IC50 in test [1], in test [2] and in test [3] were 13.6 nM, 3.19 nM and 4.83 µM, respectively.

`Cc1cc(-c2[nH]nc(-c3ccc(C4CN(CC(C)(C)O)C4)cc3)c2C(C)C)cn2ncnc12` [Example 336, 1-(3-(4-(4-isopropyl-5-(8-methyl-[1,2,4]triazolo[1,5-a]pyridin-6-yl)-1H-pyrazol-3-yl)phenyl)azetidin-1-yl)-2-methylpropan-2-ol]: the IC50 in test [1] was determined as 13.5 nM; in test [2], 39.7 nM; in test [3], 38.1 µM.
